From patent EP4741383A1, “COMPOUND AND USE THEREOF AS ANTI-CANCER DRUG” (Tyligand Bioscience (Shanghai) Limited, priority 2023, dated 2025)

Target: T1, SHP2 enzyme (catalytic domain, amino acid sequence 224-528) (Homo sapiens, UniProt Q06124)
T1 construct: purchased GenScript
T1 sequence (Q06124 224-528): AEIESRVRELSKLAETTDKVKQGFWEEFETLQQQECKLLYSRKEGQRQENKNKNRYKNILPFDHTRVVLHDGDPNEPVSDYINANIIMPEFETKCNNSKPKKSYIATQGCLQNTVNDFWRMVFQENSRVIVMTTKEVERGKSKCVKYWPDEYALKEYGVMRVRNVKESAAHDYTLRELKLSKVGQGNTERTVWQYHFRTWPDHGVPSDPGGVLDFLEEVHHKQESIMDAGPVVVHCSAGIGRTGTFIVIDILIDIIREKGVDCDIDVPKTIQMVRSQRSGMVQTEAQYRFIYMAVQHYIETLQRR
Experiment: SHP2 enzyme inhibition assay (DiFMUP substrate, fluorescence)
Format: biochemical
Details: not given
Description: This experiment evaluates the inhibitory effect of the test compounds on SHP2 enzyme activity by detecting the reaction between the human recombinant protein SHP2 enzyme and the substrate.
The stock solutions of the reaction buffer components were thawed and mixed homogeneously at room temperature, to prepare the reaction buffer (55 mM HEPES pH = 7.2 (Sigma, Cat. No. #PHR1428), 100 mM NaCl (Beyotime, Cat. No. #ST374, 5 M solution), 0.5 mM EDTA (Beyotime, Cat. No. #ST066), 1 mM DL-Dithiothreitol (DTT) (Sigma, Cat. No. #D9779), 0.002% BSA (Solarbio, Cat. No. #A8010), 0.001% Brij35 (Brij® L23 solution (Brij35) (Sigma, Cat. No. #B4184)). The SHP2 enzyme (catalytic domain, amino acid sequence 224-528, expressed and purified by GenScript) was thawed slowly on ice. 1 µL of this solution (1.37 mg/mL) was added to 386 µL of the reaction buffer to dilute it to 100 nM. Then, 120 µL of the 100 nM SHP2 enzyme solution was added to 2880 µL of reaction buffer to prepare a 4 nM SHP2 enzyme working solution. The test compounds and the specific inhibitor of SHP2 (11a-1, used as a positive control, Zeng, L. et al., J. Med. Chem. 2014, 57, 6594-6609) were prepared as 10 mM DMSO solutions. 10 µL of the 10 mM compound solution was mixed with 20 µL of DMSO solution, and then serially diluted 3-fold, resulting in 10 concentrations. 1 µL of the serially diluted solution was mixed with 99 µL of reaction buffer to obtain a 10-fold diluted compound working solution.
A 96-well black half-area microplate (Greiner, catalog #675076) was used. 25 µL of 4 nM SHP2 enzyme working solution and 5 µL of 10x compound working solution were added to each well and incubated at room temperature for 30 minutes. 15 µL of DiFMUP substrate (Thermo Fisher Scientific, catalog #D6567) was added to 2985 µL of reaction buffer to prepare a 50 µM substrate working solution. After incubation of the compounds and SHP2 enzyme, 20 µL of the 50 µM substrate working solution was added to each well and incubated at room temperature for 5 minutes. The plate was then read on a multi-mode microplate reader (BioTek, Synergy H1) at 340 nm/450 nm fluorescence.
Data were analyzed using GraphPad Prism 9.0 software. A non-linear S-curve regression dose-response-inhibition equation was used to fit the data and generate the dose-response curve, from which the IC50 value was calculated. [formula]

IC50 [µM]	Compound
0.087	O=C(Nc1ccc(-c2cc3cc(F)c(-c4nnn[nH]4)cc3n2C2CCC2)cc1)C(=O)Nc1ccc(N2CC(CCO)C2)cc1 [Example 9]

Same assay, conditions: SHP2 catalytic domain, DiFMUP substrate, 30 min pre-incubation; read-out: S HP2 I C50

Compound	IC50 [µM]
O=C(Nc1ccc(-c2ccsc2)cc1)C(=O)Nc1ccc(-c2cc3cc(O)c(-c4nnn[nH]4)cc3n2C2CCC2)cc1 [Example 3]	0.278
O=C(Nc1ccc(-c2ccsc2)cc1)C(=O)Nc1ccc(-c2cc3cc(Cl)c(-c4nnn[nH]4)cc3n2C2CCC2)cc1 [Example 5]	0.105
CC1(n2c(-c3ccc(NC(=O)C(=O)Nc4ccc(N5CCC(CO)CC5)cc4)cc3)cc3cc(F)c(-c4nnn[nH]4)cc32)CCC1 [Example 24]	0.271
CC(C)(O)C1CCN(c2ccc(NC(=O)C(=O)Nc3ccc(-c4cc5cc(F)c(-c6nnn[nH]6)cc5n4C4(C)CCC4)cc3)cc2)CC1 [Example 34]	0.072
CC(C)(O)C1CCN(c2ccc(NC(=O)C(=O)Nc3ccc(-c4cc5cc(F)c(-c6nnn[nH]6)cc5n4C4(C)CC4)cc3)cc2)CC1 [Example 35]	0.174
CC(C)(O)C1CCN(c2ccc(NC(=O)C(=O)Nc3ccc(-c4cc5cc(F)c(-c6nnn[nH]6)cc5n4CC4CC4)cc3)cc2)CC1 [Example 37]	0.044
CC(C)(O)C1CCN(c2ccc(NC(=O)C(=O)Nc3ccc(-c4cc5cc(F)c(-c6nnn[nH]6)cc5n4CC4CCC4)cc3)cc2)CC1 [Example 38]	0.112
CC(C)(O)C1CCN(c2ccc(NC(=O)C(=O)Nc3ccc(-c4cc5cc(F)c(-c6nnn[nH]6)cc5n4CC(F)(F)F)cc3)cc2)CC1 [Example 39]	0.043
CC1(CO)CCN(c2ccc(NC(=O)C(=O)Nc3ccc(-c4cc5cc(F)c(-c6nnn[nH]6)cc5n4C4(C)CCC4)cc3)cc2)CC1 [Example 41]	0.063
CC1(CO)CCN(c2ccc(NC(=O)C(=O)Nc3ccc(-c4cc5cc(F)c(-c6nnn[nH]6)cc5n4C4(C)CC4)cc3)cc2)CC1 [Example 42]	0.179
O=C(Nc1ccc(-c2cc3cc(F)c(-c4nnn[nH]4)cc3n2C2CCC2)cc1)C(=O)Nc1ccc(N2CCC(F)(CO)CC2)cc1 [Example 45]	0.055
O=C(Nc1ccc(-c2cc3cc(F)c(-c4nnn[nH]4)cc3n2C2CCC2)cc1)C(=O)Nc1ccc(N2CC3CC2CO3)cc1 (stereo not shown) [Example 49]	0.133
O=C(Nc1ccc(C2=CCOC2)cc1)C(=O)Nc1ccc(-c2cc3cc(F)c(-c4nnn[nH]4)cc3n2C2CCC2)cc1 [Example 51]	0.057
O=C(Nc1ccc(N2CCC3(CCOC3)CC2)cc1)C(=O)NC1CC=C(c2cc3cc(F)c(-c4nnn[nH]4)cc3n2C2CC2)CC1 (stereo not shown) [Example 64]	0.088
O=C(Nc1ccc(N2CCC3(CCOC3)CC2)cc1)C(=O)NC12CC(c3cc4cc(F)c(-c5nnn[nH]5)cc4n3C3CCC3)(C1)C2 [Example 65]	0.198
O=C(Nc1ccc(N2CCC3(CCOC3)CC2)cc1)C(=O)NC1CCN(c2cc3cc(F)c(-c4nnn[nH]4)cc3n2C2CCC2)CC1 [Example 66]	0.291
CC1(O)CCC2(CN(c3ccc(NC(=O)C(=O)Nc4ccc(-c5cc6cc(F)c(-c7nnn[nH]7)cc6n5C5(C)CCC5)cc4)cc3)C2)C1 (stereo not shown) [Example 80]	0.036
O=C(Nc1ccc(-c2cc3cc(F)c(-c4nnn[nH]4)cc3n2C2CCC2)cc1)C(=O)Nc1ccc(N2CC3(CCC(O)CC3)C2)cc1 [Example 81]	0.07
CC1(O)CCC2(CC1)CN(c1ccc(NC(=O)C(=O)Nc3ccc(-c4cc5cc(F)c(-c6nnn[nH]6)cc5n4C4(C)CCC4)cc3)cc1)C2 [Example 84]	0.06

Other lines, results leading:

IC50 [µM]	Compound
0.13	O=C(Nc1ccc(-c2cc3cc(F)c(-c4nnn[nH]4)cc3n2C2CCC2)cc1)C(=O)Nc1ccc(N2CC(CO)C2)cc1 [Example 8]
0.03	CC1(C#N)CCN(c2ccc(NC(=O)C(=O)Nc3ccc(-c4cc5cc(F)c(-c6nnn[nH]6)cc5n4C4CCC4)cc3)cc2)C1 (stereo not shown) [Example 11]
0.183	CC(O)C1CCN(c2ccc(NC(=O)C(=O)Nc3ccc(-c4cc5cc(F)c(-c6nnn[nH]6)cc5n4C4CCC4)cc3)cc2)C1 (stereo not shown) [Example 15]
0.074	CC1CN(c2ccc(NC(=O)C(=O)Nc3ccc(-c4cc5cc(F)c(-c6nnn[nH]6)cc5n4C4CCC4)cc3)cc2)CC1CO (stereo not shown) [Example 18]
0.152	CC1(C)CN(c2ccc(NC(=O)C(=O)Nc3ccc(-c4cc5cc(F)c(-c6nnn[nH]6)cc5n4C4CCC4)cc3)cc2)CC1CO (stereo not shown) [Example 19]
0.068	CC1(n2c(-c3ccc(NC(=O)C(=O)Nc4ccc(N5CCC(C6COC6)CC5)cc4)cc3)cc3cc(F)c(-c4nnn[nH]4)cc32)CCC1 [Example 21]
0.038	N#CC1CCN(c2ccc(NC(=O)C(=O)Nc3ccc(-c4cc5cc(F)c(-c6nnn[nH]6)cc5n4C4CCC4)cc3)cc2)CC1 [Example 22]
0.092	CC(C)(O)CCC1CCN(c2ccc(NC(=O)C(=O)Nc3ccc(-c4cc5cc(F)c(-c6nnn[nH]6)cc5n4C4CCC4)cc3)cc2)CC1 [Example 28]
0.052	CCC1(CO)CCN(c2ccc(NC(=O)C(=O)Nc3ccc(-c4cc5cc(F)c(-c6nnn[nH]6)cc5n4C4CCC4)cc3)cc2)CC1 [Example 43]
0.057	COCC1(CO)CCN(c2ccc(NC(=O)C(=O)Nc3ccc(-c4cc5cc(F)c(-c6nnn[nH]6)cc5n4C4CCC4)cc3)cc2)CC1 [Example 44]
0.045	CC1CN(c2ccc(NC(=O)C(=O)Nc3ccc(-c4cc5cc(F)c(-c6nnn[nH]6)cc5n4C4CCC4)cc3)cc2)CCC1CO (stereo not shown) [Example 46]
0.05	CCC1CN(c2ccc(NC(=O)C(=O)Nc3ccc(-c4cc5cc(F)c(-c6nnn[nH]6)cc5n4C4CCC4)cc3)cc2)CCO1 (stereo not shown) [Example 48]
0.113	O=C(Nc1ccc(-c2cc3cc(F)c(-c4nnn[nH]4)cc3n2C2CCC2)cc1)C(=O)Nc1ccc(N2CCOC3(CC3)C2)cc1 [Example 50]
0.102	O=C(Nc1ccc(C2=CCOCC2)cc1)C(=O)Nc1ccc(-c2cc3cc(F)c(-c4nnn[nH]4)cc3n2C2CCC2)cc1 [Example 52]
0.064	O=C(Nc1ccc(-c2cc3cc(F)c(-c4nnn[nH]4)cc3n2C2CCC2)cc1)C(=O)Nc1ccc(N2CC3(COC3)C2)cc1 [Example 53]
0.069	O=C(Nc1ccc(-c2cc3cc(F)c(-c4nnn[nH]4)cc3n2C2CCC2)cc1)C(=O)Nc1ccc(N2CC3(CCOC3)C2)cc1 [Example 54]
0.074	CC1(n2c(-c3ccc(NC(=O)C(=O)Nc4ccc(N5CC6(CCCOC6)C5)cc4)cc3)cc3cc(F)c(-c4nnn[nH]4)cc32)CCC1 [Example 56]
0.064	O=C(Nc1ccc(-c2cc3cc(F)c(-c4nnn[nH]4)cc3n2C2CCC2)cc1)C(=O)Nc1ccc(N2CCC3(CCCO3)C2)cc1 (stereo not shown) [Example 60]
0.038	O=C(Nc1ccc(-c2cc3cc(F)c(-c4nnn[nH]4)cc3n2C2CCC2)cc1)C(=O)Nc1ccc(N2CCC3(CC2)COC3)cc1 [Example 63]
0.05	O=C(Nc1ccc(-c2cc3cc(F)c(-c4nnn[nH]4)cc3n2C23CC(C2)C3)cc1)C(=O)Nc1ccc(N2CCC3(CCOC3)CC2)cc1 [Example 71]
0.046	O=C(Nc1ccc(-c2cc3cc(F)c(-c4nnn[nH]4)cc3n2CC2CC2)cc1)C(=O)Nc1ccc(N2CCC3(CCOC3)CC2)cc1 [Example 72]
0.048	O=C(Nc1ccc(-c2cc3cc(F)c(-c4nnn[nH]4)cc3n2C2CCC2)cc1)C(=O)Nc1ccc(N2CCC3(CCCCO3)CC2)cc1 [Example 73]
0.074	O=C(Nc1ccc(-c2cc3cc(F)c(-c4nnn[nH]4)cc3n2C2CCC2)cc1)C(=O)Nc1ccc(N2CC3(C2)CC(O)(C(F)(F)F)C3)cc1 [Example 78]
0.108	O=C(Nc1ccc(-c2cc3cc(F)c(-c4nnn[nH]4)cc3n2C2CCC2)cc1)C(=O)Nc1ccc(N2CC3(CCC(O)C3)C2)cc1 (stereo not shown) [Example 79]
0.047	O=C(Nc1ccc(-c2cc3cc(F)c(-c4nnn[nH]4)cc3n2C2CCC2)cc1)C(=O)Nc1ccc(N2CC3(CCC(CO)CC3)C2)cc1 [Example 85]

Same assay, conditions: relative to 11a-1, IC50 = 0.108 µM

SHP2 IC50 times lower than control compound 11a-1	Compound
3-4 times	CC1(C#N)CCN(c2ccc(NC(=O)C(=O)Nc3ccc(-c4cc5cc(F)c(-c6nnn[nH]6)cc5n4C4CCC4)cc3)cc2)C1 (stereo not shown) [Example 11]
3-4 times	N#CC1CCN(c2ccc(NC(=O)C(=O)Nc3ccc(-c4cc5cc(F)c(-c6nnn[nH]6)cc5n4C4CCC4)cc3)cc2)CC1 [Example 22]
3-4 times	O=C(Nc1ccc(-c2cc3cc(F)c(-c4nnn[nH]4)cc3n2C2CCC2)cc1)C(=O)Nc1ccc(N2CCC3(CC2)COC3)cc1 [Example 63]

Compound	SHP2 IC50 times lower than control compound 11a-1
CC1(O)CCC2(CN(c3ccc(NC(=O)C(=O)Nc4ccc(-c5cc6cc(F)c(-c7nnn[nH]7)cc6n5C5(C)CCC5)cc4)cc3)C2)C1 (stereo not shown) [Example 80]	3-4 times
